{"source": "ChEMBL document CHEMBL3046003", "about": "“Synthesis and antifungal activities of novel 5-amino-6-arylamino-1H-pyrazolo[3,4-d]pyrimidin-4(5H)-one derivatives” (2008)", "type_in_all_cases": "functional", "details_in_all_cases": "read-out: GI", "key": {"Botrytis cinerea [1]": {"tested_on": "Botrytis cinerea", "experiment": "Antifungal activity against Botryotinia fuckeliana assessed as growth inhibition at 50 mg/L"}, "Sclerotinia sclerotiorum [2]": {"tested_on": "Sclerotinia sclerotiorum", "experiment": "Antifungal activity against Sclerotinia sclerotiorum assessed as growth inhibition at 10 mg/L"}, "Sclerotinia sclerotiorum [3]": {"tested_on": "Sclerotinia sclerotiorum", "experiment": "Antifungal activity against Sclerotinia sclerotiorum assessed as growth inhibition at 50 mg/L"}, "Pyricularia oryzae": {"tested_on": "Pyricularia oryzae", "experiment": "Antifungal activity against Magnaporthe oryzae assessed as growth inhibition at 50 mg/L"}, "Fusarium graminearum": {"tested_on": "Fusarium graminearum", "experiment": "Antifungal activity against Fusarium graminearum assessed as growth inhibition at 50 mg/L"}, "Botrytis cinerea [4]": {"tested_on": "Botrytis cinerea", "experiment": "Antifungal activity against Botryotinia fuckeliana assessed as growth inhibition at 10 mg/L"}}}
{"smiles": "CSc1nn(-c2ccccc2)c2nc(Nc3cccc(Cl)c3)n(N)c(=O)c12", "values": [{"measurement": "inhibition of growth at 50 µg/mL", "setting": "Botrytis cinerea [1]", "value": 99, "unit": "%"}, {"measurement": "inhibition of growth at 10 µg/mL", "setting": "Sclerotinia sclerotiorum [2]", "value": 76, "unit": "%"}, {"measurement": "inhibition of growth at 50 µg/mL", "setting": "Sclerotinia sclerotiorum [3]", "value": 98, "unit": "%"}, {"measurement": "inhibition of growth at 50 µg/mL", "setting": "Pyricularia oryzae", "value": 96, "unit": "%"}, {"measurement": "inhibition of growth at 50 µg/mL", "setting": "Fusarium graminearum", "value": 57, "unit": "%"}, {"measurement": "inhibition of growth at 10 µg/mL", "setting": "Botrytis cinerea [4]", "value": 73, "unit": "%"}]}
{"smiles": "CSc1nn(-c2ccccc2)c2nc(Nc3cccc(C)c3)n(N)c(=O)c12", "values": [{"measurement": "inhibition of growth at 50 µg/mL", "setting": "Botrytis cinerea [1]", "value": 71, "unit": "%"}, {"measurement": "inhibition of growth at 10 µg/mL", "setting": "Sclerotinia sclerotiorum [2]", "value": 52, "unit": "%"}, {"measurement": "inhibition of growth at 50 µg/mL", "setting": "Sclerotinia sclerotiorum [3]", "value": 86, "unit": "%"}, {"measurement": "inhibition of growth at 50 µg/mL", "setting": "Pyricularia oryzae", "value": 14, "unit": "%"}, {"measurement": "inhibition of growth at 50 µg/mL", "setting": "Fusarium graminearum", "value": 46, "unit": "%"}, {"measurement": "inhibition of growth at 10 µg/mL", "setting": "Botrytis cinerea [4]", "value": 36, "unit": "%"}]}
{"smiles": "CSc1nn(-c2ccccc2)c2nc3n(-c4ccc(F)cc4)cnn3c(=O)c12", "values": [{"measurement": "inhibition of growth at 50 µg/mL", "setting": "Botrytis cinerea [1]", "value": 71, "unit": "%"}, {"measurement": "inhibition of growth at 10 µg/mL", "setting": "Sclerotinia sclerotiorum [2]", "value": 70, "unit": "%"}, {"measurement": "inhibition of growth at 50 µg/mL", "setting": "Sclerotinia sclerotiorum [3]", "value": 93, "unit": "%"}, {"measurement": "inhibition of growth at 50 µg/mL", "setting": "Pyricularia oryzae", "value": 9, "unit": "%"}, {"measurement": "inhibition of growth at 50 µg/mL", "setting": "Fusarium graminearum", "value": 49, "unit": "%"}, {"measurement": "inhibition of growth at 10 µg/mL", "setting": "Botrytis cinerea [4]", "value": 45, "unit": "%"}]}
{"smiles": "CSc1nn(-c2ccccc2)c2nc3n(-c4ccccc4F)cnn3c(=O)c12", "values": [{"measurement": "inhibition of growth at 50 µg/mL", "setting": "Botrytis cinerea [1]", "value": 60, "unit": "%"}, {"measurement": "inhibition of growth at 10 µg/mL", "setting": "Sclerotinia sclerotiorum [2]", "value": 19, "unit": "%"}, {"measurement": "inhibition of growth at 50 µg/mL", "setting": "Sclerotinia sclerotiorum [3]", "value": 50, "unit": "%"}, {"measurement": "inhibition of growth at 50 µg/mL", "setting": "Pyricularia oryzae", "value": 5, "unit": "%"}, {"measurement": "inhibition of growth at 50 µg/mL", "setting": "Fusarium graminearum", "value": 26, "unit": "%"}, {"measurement": "inhibition of growth at 10 µg/mL", "setting": "Botrytis cinerea [4]", "value": 31, "unit": "%"}]}
{"smiles": "CSc1nn(-c2ccccc2)c2nc3n(-c4cccc(F)c4)cnn3c(=O)c12", "values": [{"measurement": "inhibition of growth at 50 µg/mL", "setting": "Botrytis cinerea [1]", "value": 91, "unit": "%"}, {"measurement": "inhibition of growth at 10 µg/mL", "setting": "Sclerotinia sclerotiorum [2]", "value": 83, "unit": "%"}, {"measurement": "inhibition of growth at 50 µg/mL", "setting": "Sclerotinia sclerotiorum [3]", "value": 100, "unit": "%"}, {"measurement": "inhibition of growth at 50 µg/mL", "setting": "Pyricularia oryzae", "value": 29, "unit": "%"}, {"measurement": "inhibition of growth at 50 µg/mL", "setting": "Fusarium graminearum", "value": 74, "unit": "%"}, {"measurement": "inhibition of growth at 10 µg/mL", "setting": "Botrytis cinerea [4]", "value": 70, "unit": "%"}]}
{"smiles": "O=c1c2c(SCc3ccccc3)nn(-c3ccccc3)c2nc2n(-c3ccc(F)cc3)cnn12", "values": [{"measurement": "inhibition of growth at 50 µg/mL", "setting": "Botrytis cinerea [1]", "value": 67, "unit": "%"}, {"measurement": "inhibition of growth at 10 µg/mL", "setting": "Sclerotinia sclerotiorum [2]", "value": 32, "unit": "%"}, {"measurement": "inhibition of growth at 50 µg/mL", "setting": "Sclerotinia sclerotiorum [3]", "value": 75, "unit": "%"}, {"measurement": "inhibition of growth at 50 µg/mL", "setting": "Pyricularia oryzae", "value": 43, "unit": "%"}, {"measurement": "inhibition of growth at 50 µg/mL", "setting": "Fusarium graminearum", "value": 37, "unit": "%"}, {"measurement": "inhibition of growth at 10 µg/mL", "setting": "Botrytis cinerea [4]", "value": 30, "unit": "%"}]}
{"smiles": "O=c1c2c(SCc3ccccc3)nn(-c3ccccc3)c2nc2n(-c3ccccc3F)cnn12", "values": [{"measurement": "inhibition of growth at 50 µg/mL", "setting": "Botrytis cinerea [1]", "value": 60, "unit": "%"}, {"measurement": "inhibition of growth at 10 µg/mL", "setting": "Sclerotinia sclerotiorum [2]", "value": 75, "unit": "%"}, {"measurement": "inhibition of growth at 50 µg/mL", "setting": "Sclerotinia sclerotiorum [3]", "value": 96, "unit": "%"}, {"measurement": "inhibition of growth at 50 µg/mL", "setting": "Pyricularia oryzae", "value": 14, "unit": "%"}, {"measurement": "inhibition of growth at 50 µg/mL", "setting": "Fusarium graminearum", "value": 37, "unit": "%"}, {"measurement": "inhibition of growth at 10 µg/mL", "setting": "Botrytis cinerea [4]", "value": 27, "unit": "%"}]}
{"smiles": "O=c1c2c(SCc3ccccc3)nn(-c3ccccc3)c2nc2n(-c3cccc(F)c3)cnn12", "values": [{"measurement": "inhibition of growth at 50 µg/mL", "setting": "Botrytis cinerea [1]", "value": 29, "unit": "%"}, {"measurement": "inhibition of growth at 10 µg/mL", "setting": "Sclerotinia sclerotiorum [2]", "value": 5, "unit": "%"}, {"measurement": "inhibition of growth at 50 µg/mL", "setting": "Sclerotinia sclerotiorum [3]", "value": 29, "unit": "%"}, {"measurement": "inhibition of growth at 50 µg/mL", "setting": "Pyricularia oryzae", "value": 0, "unit": "%"}, {"measurement": "inhibition of growth at 50 µg/mL", "setting": "Fusarium graminearum", "value": 34, "unit": "%"}, {"measurement": "inhibition of growth at 10 µg/mL", "setting": "Botrytis cinerea [4]", "value": 5, "unit": "%"}]}
{"smiles": "CSc1nn(-c2ccccc2)c2nc3n(-c4ccccc4)cnn3c(=O)c12", "values": [{"measurement": "inhibition of growth at 50 µg/mL", "setting": "Botrytis cinerea [1]", "value": 99, "unit": "%"}, {"measurement": "inhibition of growth at 10 µg/mL", "setting": "Sclerotinia sclerotiorum [2]", "value": 83, "unit": "%"}, {"measurement": "inhibition of growth at 50 µg/mL", "setting": "Sclerotinia sclerotiorum [3]", "value": 100, "unit": "%"}, {"measurement": "inhibition of growth at 50 µg/mL", "setting": "Pyricularia oryzae", "value": 80, "unit": "%"}, {"measurement": "inhibition of growth at 50 µg/mL", "setting": "Fusarium graminearum", "value": 66, "unit": "%"}, {"measurement": "inhibition of growth at 10 µg/mL", "setting": "Botrytis cinerea [4]", "value": 70, "unit": "%"}]}
{"smiles": "O=c1c2c(SCc3ccccc3)nn(-c3ccccc3)c2nc2n(-c3ccccc3)cnn12", "values": [{"measurement": "inhibition of growth at 50 µg/mL", "setting": "Botrytis cinerea [1]", "value": 73, "unit": "%"}, {"measurement": "inhibition of growth at 10 µg/mL", "setting": "Sclerotinia sclerotiorum [2]", "value": 67, "unit": "%"}, {"measurement": "inhibition of growth at 50 µg/mL", "setting": "Sclerotinia sclerotiorum [3]", "value": 93, "unit": "%"}, {"measurement": "inhibition of growth at 50 µg/mL", "setting": "Pyricularia oryzae", "value": 29, "unit": "%"}, {"measurement": "inhibition of growth at 50 µg/mL", "setting": "Fusarium graminearum", "value": 60, "unit": "%"}, {"measurement": "inhibition of growth at 10 µg/mL", "setting": "Botrytis cinerea [4]", "value": 49, "unit": "%"}]}
{"smiles": "c1ccc2[nH]c(-c3cscn3)nc2c1", "note": "[THIABENDAZOLE]", "values": [{"measurement": "inhibition of growth at 50 µg/mL", "setting": "Botrytis cinerea [1]", "value": 100, "unit": "%"}, {"measurement": "inhibition of growth at 50 µg/mL", "setting": "Sclerotinia sclerotiorum [3]", "value": 100, "unit": "%"}, {"measurement": "inhibition of growth at 50 µg/mL", "setting": "Pyricularia oryzae", "value": 87, "unit": "%"}, {"measurement": "inhibition of growth at 50 µg/mL", "setting": "Fusarium graminearum", "value": 100, "unit": "%"}]}
